“Also recorded” adds a separate entry of the source.
Experiments:
[1] = tested on: murine DCs; assay: IL-12 p70 and IL-10 production by murine DCs in response to microbial TLR ligands; format: cell-based
Method: (§1) Zymosan was from Saccharomyces cerevisiae, lipoteichoic acid (LTA) from Staphylococcus aureus, and lipopolysaccharide (LPS) from Salmonella Minnesota Re 595. The CpG oligonucleotides 1826 and 2006 were proven immunostimulatory sequences. For phagocytosis, DCs were pre-exposed to 100 ng/ml TA1 for 60 minutes and subsequently incubated at 37° C. with Aspergillus conidia for an additional 60 minutes. The percentage of internalization was calculated and photographs were taken. In assessing functional maturation and cytokine determination, purified DCs were resuspended in Iscove's medium (with no serum but with polymixin B, to avoid non-specific activation by serum components and endotoxin) and pulsed with 100 ng/ml TA1 for 24 hours either alone or together with TLR ligands or unopsonized Aspergillus conidia. The levels of TNF-alpha, IL-10, IL-12 p70, IFN-alpha and IL-8 in culture supernatants were determined by Kit ELISAs. The detection limits (pg/ml) of the assays were <3 (human) and <32 (murine) for TNF-alpha, <12 (murine) and <5 (human) for IL-10, <16 (murine) and <3 (human) for IL-12 p70 and <25 (human) IL-8. For human IFN-alpha <3 ng/ml. For enumeration of cytokine-producing cells, an ELISPOT assay was used on purified CD4^+ T cells and DCs from lungs.

[2] = tested on: lymphocytes and neutrophils; assay: Myeloid and Th1 cell recovery in BMT mice with IA; format: in vivo
Text: The treatments were as follows; in BMT-mice, TA1, at different doses administered intraperitoneally, sthymosin alpha 1, 400 microgram/kg administered intraperitoneally or human recombinant G-CSF 250 microgram/kg administered intravenously, were given daily beginning the day of the BM infusion, in concomitance with the infection and continuing for an additional 3 days. Amphotericin B was given daily for 3 days in concomitance with the infection, at a dose of 4000 microgram/kg, administered intraperitoneally. This dose would cure IA in cyclophosphamide-treated mice. Cyclophosphamide, 150 mg/kg administered intraperitoneally, was given a day before the infection. In cyclophosphamide-treated mice, 400 microgram/kg TA1 was given intraperitoneally for 5 consecutive days beginning the day of the infection. Cell surface phenotype was assessed by reacting samples with FITC- or PE-conjugated rat anti-mouse antibodies. Unrelated hisotype matched antibodies were used as control. The levels of TNF-alpha, IL-10, IL-12 p70, IFN-alpha and IL-8 in culture supernatants were determined by Kit ELISAs. The detection limits (pg/ml) of the assays were <3 (human) and <32 (murine) for TNF-alpha, <12 (murine) and <5 (human) for IL-10, <16 (murine) and <3 (human) for IL-12 p70 and <25 (human) IL-8. For human IFN-alpha <3 ng/ml. For enumeration of cytokine-producing cells, an ELISPOT assay was used on purified CD4^+ T cells and DCs from lungs. Proliferation of lung CD4^+ T lymphocytes stimulated with 10 microgram/ml Con A or heat inactivated conidia in the presence of lung DCs, was assessed by labeling with CFSE 5(6)-carboxyfluorescein diacetate succinimidyl ester.

[3] = tested on: MyD88-dependent pathway; assay: Cytokine production by DCs of MyD88-deficient mice; format: cell-based
Method: as §1, with “Female, 8- to 10-weeks old, BALB/c and C57BL6 mice were” for “Zymosan was”, “Charles River. NOD/SCID were” for “Saccharomyces cerevisiae, lipoteichoic acid (LTA)”, “The Jackson. Breeding pairs of homozygous TLR2-, TLR9-” for “Staphylococcus aureus,”, “MyD88-deficient mice, raised on C57BL6 background,” for “lipopolysaccharide (LPS) from Salmonella Minnesota Re 595. The CpG oligonucleotides 1826”, “of homozygous IFN-gamma- and IL-4-deficient mice, raised on BALB/c background,” for “2006”, “bred under specific-pathogen free conditions.” for “proven immunostimulatory sequences.”

[4] = tested on: murine DCs; assay: RT-PCR of TLR expression on DCs; format: cell-based
Method: Synthesis and PCR of cDNA were performed with forward and reverse PCR primers and the cycles used for murine and human TLRs and HPRT. The synthesized PCR products were separated by electrophoresis on 2% agarose gel and visualized by ethidium bromide staining.

[5] = after stimulation with CpG (TLR9)
[6] = after stimulation with LTA (TLR2)
[7] = after stimulation with zymosan (TLR2)
[8] = BMT mice, cytofluorimetric analysis
[9] = combined exposure to conidia and peptide

Ac-Ser-Asp-Ala-Ala-Val-Asp-Thr-Ser-Ser-Glu-Ile-Thr-Thr-Lys-Asp-Leu-Lys-Glu-Lys-Lys-Glu-Val-Glu-Glu-Ala-Glu-Asn-O (Ac-SDAAVDTSSEITTKDLKEKKEVEEAEN-OH) [TA1, naturally occurring thymic peptide]
production of IL-10 [1, 5]: decreases
production of IL-12 p70 [1, 5]: significantly increased
production of IL-10 [1, 6]: decreases
production of IL-12 p70 [1, 6]: significantly increased
production of IL-10 [1, 7]: decreases
production of IL-12 p70 [1, 7]: significantly increased
cytokine production (IL-12 p70 and IL-10) ([1]; in response to LPS (TLR4)): did not affect
cytokine production (IL-12 p70 and IL-10) ([1]; in response to Poly(I:C)): did not affect
frequency of Th1 cells (producing IFN-gamma) ([2]; BMT mice treated with TA1): increased; also recorded: higher
frequency of Th2 cells (producing IL-4) ([2]; BMT mice treated with TA1): decreased; also recorded: lower
function of lung CD4+ T lymphocytes (antigen-specific proliferation and IFN-gamma production) ([2]; BMT mice treated with TA1): functionally active
number of lung CD4+ cells [2, 8]: increase; also recorded: significantly increased
number of lung CD8+ cells [2, 8]: increase; also recorded: significantly increased
number of lung neutrophils [2, 8]: significantly increased
total neutrophils ([2]; BMT mouse model, TA1 treatment after Aspergillus infection): increase
absolute number of circulating lymphocytes ([2]; after TA1 treatment): significantly increases
absolute number of circulating neutrophils ([2]; after TA1 treatment): significantly increases
IL-10 production [3]: dramatically ablated
IL-12 p70 production ([3]; TA1 and conidia): dramatically ablated
expression of TLR5 ([4]; combined exposure to conidia and TA1): inhibited
expression of TLR2 [4, 9]: still activated
expression of TLR9 [4, 9]: still activated
expression of TLR2 ([4]; peptide alone): strongly activates
expression of TLR5 ([4]; peptide alone): strongly activates
expression of TLR9 ([4]; peptide alone): strongly activates

Source: patent US8389680B2, “Treatment of Aspergillus infections with alpha thymosin peptides” (SciClone Pharmaceuticals, Inc., priority 2003, dated 2013)
